Read-outs that look alike come from different tables or passages of the source.
Columns and labels:
[1] = tested on: Mouse mammary carcinoma 4T1 cells; test: Anchorage-independent tumor cell growth assay; assay type: cell-based
Method: Cells are cultured for 2 h and inhibitors are added at various concentrations in a final concentration of 0.1% DMSO. After 48 h, cell growth is assayed with the cell counting kit-8 (Wako Pure Chemical), which uses a water soluble tetrazolium salt WST8. Twenty μL of the reagent is added into each well and cells are further cultured for 2 h. The optical density is measured at 450 nm.

[2] = molecular target: FAK (Mus musculus, UniProt P34152); test: Phos IC50 (phosphorylation); assay type: cell-based
[3] = molecular target: Focal Adhesion Kinase (FAK) (Homo sapiens, UniProt Q05397); test: FAK assay system (Focal Adhesion Kinase inhibition); assay type: biochemical
[4] = tested on: T Cell; test: T Cell Migration; assay type: cell-based
[5] = molecular target: IGF-IR (Homo sapiens, UniProt P08069); test: Cellular Capture ELISA of IGF-I induced autophosphorylation of the IGF-IR; assay type: cell-based; details: read-out: IGF-1R IC50
Method: In this assay the activity of the compounds of the invention against Insulin-like growth factor I (IGF-I) induced autophosphorylation of the IGF-IR is determined.

Chain of Focal Adhesion Kinase (FAK) (Q05397 384-706): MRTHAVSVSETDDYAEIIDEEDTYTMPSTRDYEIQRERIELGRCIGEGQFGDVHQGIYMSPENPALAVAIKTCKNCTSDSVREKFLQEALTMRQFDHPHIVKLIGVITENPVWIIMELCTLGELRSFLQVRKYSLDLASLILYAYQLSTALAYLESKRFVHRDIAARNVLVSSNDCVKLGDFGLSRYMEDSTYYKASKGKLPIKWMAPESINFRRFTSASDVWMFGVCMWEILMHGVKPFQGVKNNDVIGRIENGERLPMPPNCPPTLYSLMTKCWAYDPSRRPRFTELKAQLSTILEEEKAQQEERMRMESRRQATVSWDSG
Chain of FAK (P34152 2-1052): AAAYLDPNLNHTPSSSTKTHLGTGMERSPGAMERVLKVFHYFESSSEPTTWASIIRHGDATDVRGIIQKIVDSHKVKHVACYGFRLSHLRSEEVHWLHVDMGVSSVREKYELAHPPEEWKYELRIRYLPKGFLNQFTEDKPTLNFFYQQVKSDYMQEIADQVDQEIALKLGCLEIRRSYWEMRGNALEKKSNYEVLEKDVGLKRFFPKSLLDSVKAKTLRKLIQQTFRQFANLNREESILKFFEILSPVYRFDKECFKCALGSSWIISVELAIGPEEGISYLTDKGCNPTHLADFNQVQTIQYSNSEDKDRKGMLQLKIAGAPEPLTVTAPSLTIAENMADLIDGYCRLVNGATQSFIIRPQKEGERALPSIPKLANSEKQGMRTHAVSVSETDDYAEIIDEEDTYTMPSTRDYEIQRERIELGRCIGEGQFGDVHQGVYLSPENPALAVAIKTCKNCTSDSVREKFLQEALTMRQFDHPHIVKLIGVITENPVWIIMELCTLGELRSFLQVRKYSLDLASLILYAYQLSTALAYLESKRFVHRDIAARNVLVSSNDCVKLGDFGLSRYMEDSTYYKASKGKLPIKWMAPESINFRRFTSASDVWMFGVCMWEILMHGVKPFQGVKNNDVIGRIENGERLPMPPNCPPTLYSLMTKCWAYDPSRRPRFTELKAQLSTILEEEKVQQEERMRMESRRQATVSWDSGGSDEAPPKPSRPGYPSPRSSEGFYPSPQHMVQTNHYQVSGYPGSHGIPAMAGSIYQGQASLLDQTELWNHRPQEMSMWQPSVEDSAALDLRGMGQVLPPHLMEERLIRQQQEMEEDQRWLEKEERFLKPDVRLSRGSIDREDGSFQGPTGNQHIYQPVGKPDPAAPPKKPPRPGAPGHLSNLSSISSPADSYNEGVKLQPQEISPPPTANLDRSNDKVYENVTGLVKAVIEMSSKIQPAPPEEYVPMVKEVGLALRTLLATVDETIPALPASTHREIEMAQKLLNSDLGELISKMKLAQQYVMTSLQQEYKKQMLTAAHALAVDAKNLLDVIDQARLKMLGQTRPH
Chain of IGF-IR (P08069 31-1367): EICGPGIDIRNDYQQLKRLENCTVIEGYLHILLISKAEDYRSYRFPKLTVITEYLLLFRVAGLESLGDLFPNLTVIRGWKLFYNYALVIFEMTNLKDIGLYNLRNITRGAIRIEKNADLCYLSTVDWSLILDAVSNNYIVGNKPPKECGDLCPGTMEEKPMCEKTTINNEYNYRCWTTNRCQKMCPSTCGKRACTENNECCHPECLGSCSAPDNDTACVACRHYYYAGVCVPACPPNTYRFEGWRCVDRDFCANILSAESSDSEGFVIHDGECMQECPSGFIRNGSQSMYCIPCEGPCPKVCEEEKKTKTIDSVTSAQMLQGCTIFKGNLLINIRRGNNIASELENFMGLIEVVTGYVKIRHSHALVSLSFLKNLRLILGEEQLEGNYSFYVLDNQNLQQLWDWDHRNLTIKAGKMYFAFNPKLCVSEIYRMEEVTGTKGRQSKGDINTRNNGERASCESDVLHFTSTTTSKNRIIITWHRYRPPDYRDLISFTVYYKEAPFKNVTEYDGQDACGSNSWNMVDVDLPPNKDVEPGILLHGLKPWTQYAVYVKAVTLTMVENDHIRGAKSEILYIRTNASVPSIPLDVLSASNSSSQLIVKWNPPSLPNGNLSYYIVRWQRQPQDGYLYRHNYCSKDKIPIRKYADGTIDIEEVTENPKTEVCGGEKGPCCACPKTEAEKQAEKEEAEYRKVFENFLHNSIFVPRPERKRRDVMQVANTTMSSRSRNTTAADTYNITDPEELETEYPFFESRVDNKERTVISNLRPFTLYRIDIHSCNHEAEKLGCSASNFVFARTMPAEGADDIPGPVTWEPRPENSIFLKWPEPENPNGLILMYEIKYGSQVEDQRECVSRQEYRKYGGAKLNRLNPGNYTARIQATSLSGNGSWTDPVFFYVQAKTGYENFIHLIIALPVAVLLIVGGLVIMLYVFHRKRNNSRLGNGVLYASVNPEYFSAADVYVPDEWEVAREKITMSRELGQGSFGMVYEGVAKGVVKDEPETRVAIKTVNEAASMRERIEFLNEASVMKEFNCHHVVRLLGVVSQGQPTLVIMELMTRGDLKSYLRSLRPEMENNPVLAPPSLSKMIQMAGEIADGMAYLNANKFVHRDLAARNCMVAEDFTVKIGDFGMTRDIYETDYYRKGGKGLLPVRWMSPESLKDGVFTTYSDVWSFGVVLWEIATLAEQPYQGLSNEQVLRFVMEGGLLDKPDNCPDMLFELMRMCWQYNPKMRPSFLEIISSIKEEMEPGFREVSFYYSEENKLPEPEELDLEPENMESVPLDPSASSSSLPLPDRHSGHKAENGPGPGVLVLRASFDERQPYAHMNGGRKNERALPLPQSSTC

| IC50 ([1]; Mus musculus, 4T1) [nM] | IC50 [2] [nM] | IC50 ([3]; read-out: FAK IC50) [nM] | IC50 ([4]; T-cell) [nM] | IC50 [5] [nM] | IC50 [1] [nM] | IC50 [4] [nM] | SMILES | IC50 ([3]; FAK IC50) [nM] |
| --- | --- | --- | --- | --- | --- | --- | --- | --- |
| 1470 | 200 | 19 | 280 |  |  |  | COc1cc(N2CCOCC2)ccc1Nc1ncc(Cl)c(Nc2ccccc2C(=O)N(C)C)n1 [Example 14-1] |  |
| 780 | 400 | 4.4 | 500 |  |  |  | CCCS(=O)(=O)c1ccccc1Nc1nc(Nc2ccc(N3CCN(C(C)=O)C(C)(C)C3)cc2OC)ncc1Cl [Example 26-11] |  |
| 180 | 300 | 10 | 250 | 700 |  |  | CNS(=O)(=O)c1ccccc1Nc1nc(Nc2ccc(N3CCOCC3)cc2OC)ncc1Cl [Example 20-1] |  |
|  |  |  |  |  | 50 | 290 | CNS(=O)(=O)c1ccccc1Nc1nc(Nc2ccc(N3CCC(N4CCCCC4)CC3)cc2OC)ncc1Cl [Example 20-8] |  |
|  | 500 | 1 |  |  | 480 | 900 | CCCS(=O)(=O)c1ccccc1Nc1nc(Nc2ccc(N3CCC(N(C)C)C3)cc2OC)ncc1Cl (stereo not drawn) [Example 26-24] |  |
| 400 | 30 | 3.2 | 290 | 130 |  |  | COc1cc(N2CCOCC2)ccc1Nc1ncc(Cl)c(Nc2ccccc2S(=O)(=O)NC(C)C)n1 [Example 19-8] |  |
| 100 | 300 | 17 | 260 |  |  |  | CCCS(=O)(=O)c1ccccc1Nc1nc(Nc2cc(N3CCOCC3)ccc2OC)ncc1Cl [Example 26-17] |  |
| 430 | 50 | 4.9 | 290 | 1160 |  |  | CCCS(=O)(=O)c1ccccc1Nc1nc(Nc2ccc(N3CCC(O)CC3)cc2OC)ncc1Cl [Example 26-4] |  |
| 120 | 30 | 1.9 | 90 | 390 |  |  | CCCS(=O)(=O)c1ccccc1Nc1nc(Nc2ccc(N3CCN(C(C)=O)CC3)cc2OC)ncc1Cl [Example 26-2] |  |
| 120 | 100 | 4.8 | 300 | 460 |  |  | CC(C)NS(=O)(=O)c1ccccc1Nc1nc(Nc2ccc(OC3CCN(C)CC3)cc2F)ncc1Cl [Example 19-28] |  |
| 200 | 600 | 3.4 | 630 | 530 |  |  | CCC(CC)NS(=O)(=O)c1ccccc1Nc1nc(Nc2ccc(OC3CCN(C)CC3)cc2OC)ncc1Cl [Example 23-1] |  |
| 520 | 400 | 5.2 | 1000 |  |  |  | COc1cc(N2CCC[C@@H](C(N)=O)C2)ccc1Nc1ncc(Cl)c(Nc2ccccc2S(=O)(=O)C(C)C)n1 [Example 28-28] |  |
| 420 | 300 | 2.4 | 500 |  |  |  | COc1cc(N2CCC[C@H](C(N)=O)C2)ccc1Nc1ncc(Cl)c(Nc2ccccc2S(=O)(=O)C(C)C)n1 [Example 28-27] |  |
|  | 200 | 1.8 |  |  | 670 | 70 | COc1cc(N2CCN(C)CC2)ccc1Nc1ncc(Cl)c(Nc2ccccc2S(=O)(=O)NC(C)C)n1 [Example 19-5] |  |
| 1100 | 2000 | 190 | 1000 |  |  |  | COc1cc(N2CCOCC2)ccc1Nc1ncc(Cl)c(Nc2ccccc2C(=O)NC(C)C)n1 [Example 14-2] |  |
| 170 | 120 | 9 | 750 | 520 |  |  | CNS(=O)(=O)c1ccccc1Nc1nc(Nc2ccc(N3CCN(C(C)=O)CC3)cc2OC)ncc1Cl [Example 20-2] |  |
| 490 | 1000 | 7.2 |  | 240 |  |  | CC(C)NS(=O)(=O)c1ccccc1Nc1nc(Nc2ccc(N3CCOCC3)cc2F)ncc1Cl [Example 19-25] |  |
| 400 | 90 | 2.5 | 220 |  |  |  | COc1cc(N2CCOCC2)ccc1Nc1ncc(Cl)c(Nc2cccc3c2C(=O)N(C)C3)n1 [Example 12-1, 7-[5-Chloro-2-(2-methoxy-4-morpholin-4-yl-phenylamino)-pyrimidin-4-ylamino]-2-methyl-2,3-dihydro-isoindol-1-one] |  |
| 550 | 100 | 7.8 | 290 |  |  |  | COc1cc(N2CCC(N3CCOCC3)CC2)ccc1Nc1ncc(Cl)c(Nc2ccccc2S(=O)(=O)C(C)C)n1 [Example 28-13] |  |
| 140 | 360 | 5 | 49000 |  |  |  | CNS(=O)(=O)c1ccccc1Nc1nc(Nc2ccc(N3CCN(C)CC3)cc2OC)ncc1Cl [Example 20-6] |  |
| 1000 | 110 | 11 | 600 |  |  |  | COc1cc(N2CCC(O)CC2)ccc1Nc1ncc(Cl)c(Nc2ccccc2S(=O)(=O)C(C)C)n1 [Example 28-16] |  |
| 90 | 300 | 1.4 |  | 180 |  |  | CCCS(=O)(=O)c1ccccc1Nc1nc(Nc2ccc(N3CCN(C(C)C)CC3)cc2OC)ncc1Cl [Example 26-23] |  |
| 70 | 30 | 1.6 |  | 230 |  |  | COc1cc(OC2CCN(C)C2)ccc1Nc1ncc(Cl)c(Nc2ccccc2S(=O)(=O)NC(C)C)n1 (stereo not drawn) [Example 19-20] |  |

Further lines, the compound ahead of its results:

| SMILES | IC50 ([1]; Mus musculus, 4T1) [nM] | IC50 [2] [nM] | IC50 ([3]; read-out: FAK IC50) [nM] | IC50 ([4]; T-cell) [nM] | IC50 [5] [nM] | IC50 [1] [nM] | IC50 [4] [nM] | IC50 ([3]; FAK IC50) [nM] |
| --- | --- | --- | --- | --- | --- | --- | --- | --- |
| COc1cc(N2CCC(N(C)C)C2)ccc1Nc1ncc(Cl)c(Nc2ccccc2S(=O)(=O)NC(C)C)n1 (stereo not drawn) [Example 19-9] | 390 |  |  | 300 | 480 |  |  | 1.3 |
| CCNC(=O)c1ccccc1Nc1nc(Nc2ccc(OC3CCN(C)CC3)cc2OC)ncc1Cl [Example 9-6] | 400 | 3000 | 23 | 300 |  |  |  |  |
| CNC(=O)c1ccccc1Nc1nc(Nc2cc(N3CCN(C(C)=O)CC3)ccc2OC)ncc1Cl [Example 7-30] | 300 |  | 2.1 | 1000 |  |  |  |  |
| CNC(=O)c1ccccc1Nc1nc(Nc2ccc(N3CCC(NC)C3)cc2OC)ncc1Cl (stereo not drawn) [Example 7-12] | 1000 | 900 | 1.9 | 310 | 620 |  |  |  |
| CNC(=O)c1ccccc1Nc1nc(Nc2cc(N3CCOCC3)ccc2OC)ncc1Cl [Example 7-6] | 1090 | 800 | 17 | 250 |  |  |  |  |
| CNS(=O)(=O)c1ccccc1Nc1nc(Nc2cc(N3CCOCC3)ccc2OC)ncc1Br [Example 3-32] | 490 | 180 | 14 | 280 | 120 |  |  |  |
| CNS(=O)(=O)c1ccccc1Nc1nc(Nc2ccc(N3CCN(C(C)=O)CC3)cc2OC)ncc1Br [Example 3-46] | 180 | 100 | 4 | 300 |  |  |  |  |
| CNS(=O)(=O)c1ccccc1Nc1nc(Nc2cc(N(C)C)ccc2OC)ncc1Br [Example 3-64] | 700 | 130 | 5 | 210 |  |  |  |  |
| CNS(=O)(=O)c1ccccc1Nc1nc(Nc2cc(N3CCC(N4CCCCC4)CC3)ccc2OC)ncc1Br [Example 3-69] | 110 | 200 | 4 | 580 |  |  |  |  |
| CNS(=O)(=O)c1ccccc1Nc1nc(Nc2ccc(N3CCN(C)CC3)cc2OC)ncc1Br [Example 3-39] | 30 | 20 | 2 | 1000 | 90 |  |  |  |
| CCNC(=O)c1ccccc1Nc1nc(Nc2ccc(N3CCOCC3)cc2OC)ncc1Cl [Example 9-1] | 1000 | 360 | 22 | 600 |  |  |  |  |
| CNC(=O)c1ccccc1Nc1nc(Nc2ccc(N3CCOCC3)cc2OC)ncc1Cl [Example 7A, 2-[5-Chloro-2-(2-methoxy-4-morpholin-4-yl-phenylamino)-pyrimidin-4-ylamino]-N-methyl-benzamide] | 470 | 210 |  | 40 |  |  |  |  |
| CNS(=O)(=O)c1ccccc1Nc1nc(Nc2cc(OC3CCN(C)CC3)ccc2OC)ncc1Br [Example 3-76] | 1300 | 290 | 15 | 700 |  |  |  |  |
| CNS(=O)(=O)c1ccccc1Nc1nc(Nc2ccc(N3CCCC(C(N)=O)C3)cc2OC)ncc1Br (stereo not drawn) [Example 3-68] | 630 |  |  | 1000 |  |  |  | 5.5 |
| CNS(=O)(=O)c1ccccc1Nc1nc(Nc2ccc(-n3ccnc3)cc2OC)ncc1Br [Example 3-48] | 300 | 70 | 7 |  | 210 |  |  |  |
| CNS(=O)(=O)c1ccccc1Nc1nc(Nc2ccc(N3CCC(C(N)=O)CC3)cc2OC)ncc1Br [Example 3-43] | 110 | 200 | 5.6 |  | 270 |  |  |  |
| CNS(=O)(=O)c1ccccc1Nc1nc(Nc2cc(N3CCN(C(C)=O)CC3)ccc2OC)ncc1Br [Example 3-34] | 240 | 100 |  | 130 |  |  |  |  |
| CNS(=O)(=O)c1ccccc1Nc1nc(Nc2ccc(OC)nc2OC)ncc1Br [Example 3-50] | 1000 | 120 | 13 |  | 1190 |  |  |  |
| CNC(=O)c1ccccc1Nc1nc(Nc2cc(F)ccc2OC)ncc1Br [Example 8-3] | 1000 | 220 | 13 |  | > 10000 |  |  |  |
| CCOc1cc(N2CCOCC2)ccc1Nc1ncc(Br)c(Nc2ccccc2S(=O)(=O)NC)n1 [Example 3-58] | 300 | 80 | 21 |  | 140 |  |  |  |
| CNS(=O)(=O)c1ccccc1Nc1nc(Nc2cc(OC)ccc2OC)ncc1Br [Example 3-15] | 800 | 20 | 7 |  | 940 |  |  |  |
